The record followed here is US12595269B2, “Morpholine-like monoamine releasers” (Solvonis Therapeutics Ireland Holdings Limited, priority 2022, dated 2026).

The term IC50 denotes the midpoint of a concentration-inhibition curve.

The series addresses T1, CYP2C8 (Homo sapiens, UniProt P10632).
T1 construct: purchased Life Technologies PV6138; host or cells: Baculosomes
T1 sequence (P10632 1-490): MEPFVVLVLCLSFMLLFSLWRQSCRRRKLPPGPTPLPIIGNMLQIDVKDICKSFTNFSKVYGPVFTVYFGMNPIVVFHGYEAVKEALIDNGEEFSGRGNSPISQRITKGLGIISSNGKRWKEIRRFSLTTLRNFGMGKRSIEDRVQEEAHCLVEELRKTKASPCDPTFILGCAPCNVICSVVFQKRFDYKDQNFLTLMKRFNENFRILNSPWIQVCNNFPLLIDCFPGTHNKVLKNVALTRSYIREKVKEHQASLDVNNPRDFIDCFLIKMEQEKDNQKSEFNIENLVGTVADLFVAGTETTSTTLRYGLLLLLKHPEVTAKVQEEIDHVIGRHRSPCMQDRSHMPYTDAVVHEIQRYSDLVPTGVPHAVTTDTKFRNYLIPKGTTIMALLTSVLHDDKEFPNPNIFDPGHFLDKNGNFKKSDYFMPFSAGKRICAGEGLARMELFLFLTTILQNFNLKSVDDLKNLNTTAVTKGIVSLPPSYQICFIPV
Description: CYP450 inhibition, CYP2C8 Baculosomes, Vivid DBOMF substrate. The class given is in vitro ADME. On the procedure: Methods and Procedure: The study was performed in agreement with previously described procedures to assure data integrity and adherence to GLP standards. Briefly, recombinant human CYP450 isoenzymes were used to metabolize pro-fluorescent probe substrates to fluorescent products. IC50 values determined from the effect of test compounds on the metabolism of these probe substrates were then used to determine inhibitory potency against CYP450 isoforms.
The test system was based on a three-step procedure with a “mix and read” format, where PGP-432,TI reaction and reading were performed at 37° C. […] Fluorescence was measured in kinetic mode (1 read/minutes for 10 minutes), and the fluorescence rate was calculated. […]
Next, 10 μL/well from the compound plate was added and incubated for 10 minutes at 37° C. on a plate shaker, while a mixture of Vivid Substrate and Vivid NADP+ in Vivid CYP450 Reaction Buffer was prepared. The reaction was initiated by adding 10 μL/well of the Vivid Substrate and NADP+ mixture, before transferring the plate into the fluorescent plate reader (immediately, within 2 minutes), and fluorescence was monitored every minute for 10 minutes according to the specific protocol. Regarding data analysis, the inhibition effect is expressed as a percentage. […]

Turning to `CNC(C)Cc1ccc2c(c1)OCO2` (centres unmarked) [MDMA, reference compound], the IC50 at 10 min (human, recombinant CYP2C8 Baculosomes, pH 8, probe Vivid DBOMF) was 50 µM.
Consider `Clc1ccc(C23CNC(CO2)C3)cc1Cl` (centres unmarked) [522A, 1-(3,4-dichlorophenyl)-2-oxa-5-azabicyclo[2.2.1]heptane], for which the IC50 (recombinant human CYP2C8) was above 50 µM.
